Measured values: the NIST ThermoML archive (doi:10.1016/j.tca.2004.08.001)

Assays:
[1] = 101.33 kPa, Liquid; for speed of sound: Linear variable-path acoustic interferometer
[2] = refractive index (Na D-line) (dimensionless); conditions: 101.33 kPa, Liquid, Standard Abbe refractometry
[3] = xn = mol fraction of the nth substance listed; conditions: 303.15 K, 101.3 kPa, Liquid; for speed of sound: Linear variable-path acoustic interferometer
[4] = refractive index (Na D-line) (dimensionless); xn = mol fraction of the nth substance listed; conditions: 303.15 K, 101.3 kPa, Liquid, Standard Abbe refractometry

ClC(Cl)C(Cl)Cl [1,1,2,2-tetrachloroethane]
303.15 K
Conditions | mass density [kg/m3] | refractive index | speed of sound [m/s] | viscosity [mPa·s]
[1] | 1578.6 | – | 1135 | 1.457
[2] | – | 1.4881 | – | –

C1CCOC1 [tetrahydrofuran] + CCOC(C)=O
Conditions | mass density, [3] [kg/m3] | refractive index, [4] | speed of sound, [3] [m/s] | viscosity, [3] [mPa·s]
x1 = 0.0995 | 887.39 | 1.3707 | 1129 | 0.4078
x1 = 0.2035 | 886.11 | 1.375 | 1141 | 0.4082
x1 = 0.3016 | 884.98 | 1.3785 | 1153 | 0.4085
x1 = 0.3923 | 883.95 | 1.3821 | 1165 | 0.4091
x1 = 0.4868 | 882.82 | 1.3858 | 1177 | 0.4111
x1 = 0.5955 | 881.45 | 1.3892 | 1192 | 0.4147
x1 = 0.6973 | 880.21 | 1.3921 | 1206 | 0.4184
x1 = 0.812 | 878.89 | 1.3964 | 1224 | 0.4236
x1 = 0.9 | 877.84 | 1.3995 | 1238 | 0.4287

CCCCOC(C)=O [butyl ethanoate] + C1CCOC1
Conditions | mass density, [3] [kg/m3] | refractive index, [4] | speed of sound, [3] [m/s] | viscosity, [3] [mPa·s]
x2 = 0.1033 | 871.17 | 1.3911 | 1177 | 0.6261
x2 = 0.1989 | 871.58 | 1.3924 | 1182 | 0.6085
x2 = 0.3041 | 872.04 | 1.3941 | 1188 | 0.5892
x2 = 0.3995 | 872.51 | 1.3954 | 1194 | 0.5762
x2 = 0.4967 | 873.01 | 1.397 | 1201 | 0.5573
x2 = 0.6013 | 873.59 | 1.3979 | 1210 | 0.5346
x2 = 0.6979 | 874.18 | 1.3991 | 1219 | 0.5107
x2 = 0.7978 | 874.96 | 1.4005 | 1229 | 0.4893
x2 = 0.8999 | 875.79 | 1.4018 | 1241 | 0.4644

COC(C)=O [methyl ethanoate]
303.15 K
Conditions | mass density [kg/m3] | refractive index | speed of sound [m/s] | viscosity [mPa·s]
[1] | 920.83 | – | 1136 | 0.343
[2] | – | 1.3567 | – | –

CCOC(C)=O [ethyl acetate]
303.15 K
Conditions | mass density [kg/m3] | refractive index | speed of sound [m/s] | viscosity [mPa·s]
[1] | 888.55 | – | 1117 | 0.4043
[2] | – | 1.3664 | – | –

ClC(Cl)(Cl)Cl [tetrachloromethane]
303.15 K
Conditions | mass density [kg/m3] | refractive index | speed of sound [m/s] | viscosity [mPa·s]
[1] | 1574.82 | – | 905 | 0.8441
[2] | – | 1.4555 | – | –

ClC(Cl)Cl [trichloromethane] + C1CCOC1
Conditions | mass density, [3] [kg/m3] | refractive index, [4] | speed of sound, [3] [m/s] | viscosity, [3] [mPa·s]
x2 = 0.1023 | 1410.89 | 1.438 | 986 | 0.5307
x2 = 0.2085 | 1349.01 | 1.4346 | 1006 | 0.5467
x2 = 0.3045 | 1292.84 | 1.4315 | 1024 | 0.5566
x2 = 0.4278 | 1220.11 | 1.4273 | 1051 | 0.559
x2 = 0.5003 | 1176.98 | 1.4251 | 1070 | 0.558
x2 = 0.6047 | 1114.67 | 1.421 | 1102 | 0.5445
x2 = 0.6976 | 1058.96 | 1.4168 | 1133 | 0.5245
x2 = 0.8077 | 992.59 | 1.4121 | 1174 | 0.4955
x2 = 0.8921 | 941.69 | 1.4079 | 1208 | 0.4676

CCCCCCCl [1-chlorohexane]
Conditions | mass density, [1] [kg/m3] | refractive index, [2] | speed of sound, [1] [m/s] | viscosity, [1] [mPa·s]
298.15 K | 873.47 | 1.4197 | – | –
303.15 K | 868.78 | 1.4168 | 1184 | 0.6544

ClC(Cl)Cl [trichloromethane]
303.15 K
Conditions | mass density [kg/m3] | refractive index | speed of sound [m/s] | viscosity [mPa·s]
[1] | 1470.59 | – | 967 | 0.51
[2] | – | 1.441 | – | –

CCCCCOC(C)=O [pentyl ethanoate] + C1CCOC1
Conditions | mass density, [3] [kg/m3] | refractive index, [4] | speed of sound, [3] [m/s] | viscosity, [3] [mPa·s]
x2 = 0.1067 | 867.69 | 1.3967 | 1198 | 0.7426
x2 = 0.298 | 868.75 | 1.3978 | 1203 | 0.7005
x2 = 0.4997 | 870.25 | 1.3992 | 1212 | 0.6373
x2 = 0.6997 | 872.25 | 1.4005 | 1224 | 0.5686
x2 = 0.9027 | 875 | 1.4021 | 1242 | 0.4829

CCCCCOC(C)=O [pentyl ethanoate]
303.15 K
Conditions | mass density [kg/m3] | refractive index | speed of sound [m/s] | viscosity [mPa·s]
[1] | 867.2 | – | 1197 | 0.7573
[2] | – | 1.3961 | – | –

ClC(Cl)C(Cl)Cl [1,1,2,2-tetrachloroethane] + C1CCOC1
Conditions | mass density, [3] [kg/m3] | refractive index, [4] | speed of sound, [3] [m/s] | viscosity, [3] [mPa·s]
x2 = 0.1023 | 1523.21 | 1.483 | 1138 | 1.389
x2 = 0.2128 | 1460.02 | 1.476 | 1143 | 1.307
x2 = 0.3093 | 1401.59 | 1.4701 | 1149 | 1.227
x2 = 0.4056 | 1340.18 | 1.4639 | 1157 | 1.136
x2 = 0.5093 | 1270.31 | 1.4556 | 1168 | 1.029
x2 = 0.6032 | 1203.28 | 1.4472 | 1180 | 0.9116
x2 = 0.7046 | 1126.91 | 1.4368 | 1195 | 0.786
x2 = 0.8008 | 1050.12 | 1.4268 | 1212 | 0.6647
x2 = 0.8973 | 968.58 | 1.416 | 1231 | 0.5519

CCCCCCBr [1-bromohexane] + C1CCOC1
Conditions | mass density, [3] [kg/m3] | refractive index, [4] | speed of sound, [3] [m/s] | viscosity, [3] [mPa·s]
x2 = 0.0976 | 1146.32 | 1.442 | 1087 | 0.8602
x2 = 0.3008 | 1107.3 | 1.4368 | 1119 | 0.7753
x2 = 0.4975 | 1061.2 | 1.4307 | 1154 | 0.6995
x2 = 0.696 | 1002.92 | 1.4223 | 1194 | 0.6258
x2 = 0.9 | 924.62 | 1.4105 | 1235 | 0.5054

C1CCOC1 [tetrahydrofuran]
303.15 K
Conditions | mass density [kg/m3] | refractive index | speed of sound [m/s] | viscosity [mPa·s]
[1] | 876.7 | – | 1255 | 0.4383
[2] | – | 1.4028 | – | –

COC(C)=O [methyl ethanoate] + C1CCOC1
Conditions | mass density, [3] [kg/m3] | refractive index, [4] | speed of sound, [3] [m/s] | viscosity, [3] [mPa·s]
x2 = 0.1028 | 915.9 | 1.3649 | 1151 | 0.3512
x2 = 0.3022 | 906.64 | 1.3748 | 1178 | 0.3672
x2 = 0.5035 | 897.56 | 1.3847 | 1204 | 0.3841
x2 = 0.693 | 889.35 | 1.3927 | 1226 | 0.4035
x2 = 0.8918 | 881.07 | 1.4008 | 1246 | 0.4251

ClC(Cl)(Cl)Cl [tetrachloromethane] + C1CCOC1
Conditions | mass density, [3] [kg/m3] | refractive index, [4] | speed of sound, [3] [m/s] | viscosity, [3] [mPa·s]
x2 = 0.1068 | 1513.72 | 1.4519 | 932 | 0.8152
x2 = 0.2017 | 1457.18 | 1.4486 | 955 | 0.788
x2 = 0.3004 | 1395.97 | 1.4451 | 982 | 0.758
x2 = 0.396 | 1334.07 | 1.4409 | 1008 | 0.721
x2 = 0.503 | 1261.58 | 1.4357 | 1042 | 0.6782
x2 = 0.6 | 1192.83 | 1.4304 | 1074 | 0.6359
x2 = 0.6923 | 1124.71 | 1.4247 | 1109 | 0.5916
x2 = 0.7949 | 1045.62 | 1.4182 | 1152 | 0.5453
x2 = 0.8889 | 969.98 | 1.4116 | 1196 | 0.4962

CCCCCCCl [1-chlorohexane] + C1CCOC1
Conditions | mass density, [3] [kg/m3] | refractive index, [4] | speed of sound, [3] [m/s] | viscosity, [3] [mPa·s]
x2 = 0.1039 | 869.11 | 1.4161 | 1195 | 0.6407
x2 = 0.305 | 870.03 | 1.4142 | 1216 | 0.6046
x2 = 0.5025 | 871.36 | 1.4122 | 1233 | 0.5698
x2 = 0.7336 | 873.79 | 1.4088 | 1247 | 0.5114
x2 = 0.9013 | 875.66 | 1.4053 | 1252 | 0.4711

CCCCCCBr [1-bromohexane]
Conditions | mass density, [1] [kg/m3] | refractive index, [2] | speed of sound, [1] [m/s] | viscosity, [1] [mPa·s]
298.15 K | 1169.62 | 1.4464 | – | –
303.15 K | 1162.67 | 1.4441 | 1075 | 0.903

CCCCOC(C)=O [butyl ethanoate]
303.15 K
Conditions | mass density [kg/m3] | refractive index | speed of sound [m/s] | viscosity [mPa·s]
[1] | 870.8 | – | 1172 | 0.6453
[2] | – | 1.3896 | – | –
